Assay results from article PMC8134483 (Scientific Reports, 2021).
Like-named read-outs stand apart in the source and are kept apart here.

Tests used:
hCB2R [1] = target: T1, hCB2R (Homo sapiens, UniProt P34972); test: [^3H]CP55,940 competition (radioligand displacement) binding to CB2R; conditions: for CB2R [^3H]CP55,940 Emin: bottom of the concentration–response curve, mean ± SEM
T1 construct: host or cells: CHO-K1 (PathHunter)

male C57Bl/6 mice = test: Elevated plus maze (EPM); type: in vivo; conditions: 1.0 mg/kg i.p., 30 min after treatment, 5 min trial
Procedure: Adult male C57BL/6 mice aged 6–10 weeks (mean weight 24 ± 0.5 g) were purchased from Charles River Labs (Senneville, QC). Animals were group housed (three per cage) with ad libitum access to food, water, and environmental enrichment and maintained on a 12 h light/dark cycle. Mice were randomly assigned to receive i.p. injections of vehicle (1:1:18 ethanol:emulphor:saline) or 0.1–10 mg/kg SCRA (n ≥ 4 per group). All protocols have been described previously and were in accordance with the guidelines detailed by the Canadian Council on Animal Care and approved by the Animal Research Ethics Board and the Scientific Merit Review Committee for Animal Behaviour at the University of Saskatchewan. The following steps were taken to ensure our study was in keeping with the ARRIVE guidelines: (1) power analyses were conducted to determine the minimum number of animals required for the study; (2) animals were purchased—rather than bred—to limit animal waste; and (3) all assessments of animal behaviour were made by individuals blinded to the treatment group,[57].
EPM was conducted according to methods adapted from Marks et al.. The EPM was built from a plywood base painted blue with blue corrugated plastic floor and walls. The floor of the maze was composed of perpendicular interlocking arms (110 cm long × 10 cm wide) with two arms having 45 cm walls (closed arms) and two arms having no walls and a 0.5 cm edge (open arms), all elevated 45 cm from the ground. Trials began with the mouse in the central zone facing an open arm. Trials lasted 5 min and began 30 min after SCRA treatment. An arm entry was considered to be all four limbs leaving the central zone. Arm entries and the percent time spent in open versus closed arms were recorded by an observer blinded to the treatment group. Less time in the open arms and more time in the closed arms was used as a model of anxiogenic behaviour.

hCB1R [2] = target: T2, hCB1R (Homo sapiens, UniProt P21554); test: biochemical; type: binding; conditions: for CB1R versus CB2R selectivity, receptor affinity: CB1R vs CB2R [^3H]CP55,940 binding
T2 construct: expressed in transfected cells; host or cells: CHO-K1
T2 sequence (P21554 whole entry): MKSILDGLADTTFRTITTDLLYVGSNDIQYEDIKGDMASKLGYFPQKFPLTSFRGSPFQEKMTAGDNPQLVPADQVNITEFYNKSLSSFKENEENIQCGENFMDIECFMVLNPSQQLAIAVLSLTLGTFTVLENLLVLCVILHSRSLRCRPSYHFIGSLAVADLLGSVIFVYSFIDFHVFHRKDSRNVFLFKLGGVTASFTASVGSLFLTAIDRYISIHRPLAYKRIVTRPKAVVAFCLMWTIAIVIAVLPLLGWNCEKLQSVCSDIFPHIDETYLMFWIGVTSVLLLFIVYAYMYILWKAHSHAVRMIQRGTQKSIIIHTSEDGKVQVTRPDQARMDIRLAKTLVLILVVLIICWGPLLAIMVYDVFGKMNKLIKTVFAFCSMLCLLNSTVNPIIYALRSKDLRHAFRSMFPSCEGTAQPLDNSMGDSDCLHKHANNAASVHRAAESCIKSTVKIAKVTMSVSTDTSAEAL

hCB2R [3] = target: T1, hCB2R; test: PathHunter βarrestin2 recruitment, CB2R; type: cell-based; conditions: for βarrestin2 recruitment to CB2R, activity in words: relative to CP55,940
hCB1R [4] = target: T2, hCB1R; test: cell-based; type: cell-based; conditions: for EC50: CHO hCB1R, 10 µM FSK, 90 min, value with 95% CI, read-out: CB1R cAMP Inhibition EC50; for Emax: read-out: CB1R cAMP Inhibition Emax
hCB2R [5] = target: T1, hCB2R; test: CB2R bias analysis (operational model, cAMP inhibition vs βarrestin2); type: cell-based; conditions: CP55,940 as reference agonist; >0 cAMP bias, <0 βarrestin2 bias
Procedure: Estimates of Ki, EC50, Emin, and Emax were determined using non-linear regression with variable slope (four parameters) (GraphPad, Prism, v. 8.0). […] One-way analysis of variance (ANOVA), followed by Tukey’s post-hoc test, was used for statistical analyses (p < 0.05 determined to be significant); and Bartlett’s test was used to confirm homogeneity of variance (GraphPad).

hCB1R [6] = target: T2, hCB1R; test: cell-based; type: cell-based; conditions: for EC50: CHO hCB1R, 90 min, value with 95% CI, read-out: CB1R βarrestin2 recruitment EC50; for Emax: read-out: CB1R βarrestin2 recruitment Emax; for βarrestin2 recruitment to CB1R, activity in words: relative to CP55940
hCB2R [7] = target: T1, hCB2R; test: HitHunter inhibition of FSK-stimulated cAMP, CB2R; type: cell-based
[8] = bottom of the concentration–response curve, mean ± SEM

T1 sequence (P34972 whole entry): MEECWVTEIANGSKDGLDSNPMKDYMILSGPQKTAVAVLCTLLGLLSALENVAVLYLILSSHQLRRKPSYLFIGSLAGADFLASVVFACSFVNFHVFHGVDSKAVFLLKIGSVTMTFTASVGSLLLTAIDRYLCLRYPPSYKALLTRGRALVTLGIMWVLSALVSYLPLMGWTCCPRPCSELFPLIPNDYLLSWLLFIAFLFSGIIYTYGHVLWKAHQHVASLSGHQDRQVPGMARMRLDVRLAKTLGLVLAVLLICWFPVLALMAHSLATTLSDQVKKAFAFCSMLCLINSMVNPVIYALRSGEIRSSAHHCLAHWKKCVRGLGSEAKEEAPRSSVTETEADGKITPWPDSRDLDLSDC

SMILES	CB2R [^3H]CP55,940 Emin (hCB2R [1]) [%]	EC50 (hCB2R [3]) [nM]	Emax (hCB2R [3]) [%]	EC50 (hCB1R [4]) [nM]	Emax (hCB1R [4]) [%]	CB2R bias between cAMP inhibition and βarrestin2 recruitment, ∆∆LogR (cAMP—βarr2), in words (hCB2R [5])	EC50 (hCB1R [6]) [nM]	Emax (hCB1R [6]) [%]	βarrestin2 recruitment to CB1R, activity in words (hCB1R [6])	Ki (hCB2R [1]) [nM]	Ki (hCB1R [2]) [nM]	CB1R versus CB2R selectivity, receptor affinity (hCB1R [2])	CB1R [^3H]CP55,940 Emin (hCB1R [2]; [8]) [%]	EC50 (hCB2R [7]) [nM]	Emax (hCB2R [7]) [%]	βarrestin2 recruitment to CB2R, activity in words (hCB2R [3])	Affinity for CB2R compared with CP55,940, in words (hCB2R [1])	further results
CCCCCCC(C)(C)c1ccc([C@@H]2C[C@H](O)CC[C@H]2CCCO)c(O)c1 [CP55,940, reference compound]	0.0 ± 5.6	–	–	–	–	–	–	–	–	–	–	–	–	–	–	–	–	EPM time in the central quadrant (male C57Bl/6 mice): majority of their time in the central quadrant immobile; EPM total arm entries (male C57Bl/6 mice; vs vehicle): reduced total arm entries; CB1R [^3H]CP55,940 Emin (hCB1R [2]): 0.0 ± 5.2%
O=C(c1ccc(Cl)c2ccccc12)c1cn(CCCCCF)c2ccccc12 [Cl 2201]	66 ± 2.5	120	17 ± 1.1	2.6	89 ± 3.9	significant bias toward the inhibition of cAMP	> 10000	16 ± 1	Inactive at βarrestin2	26	0.09	greater affinity at CB1R relative to CB2R	76 ± 2.8	1	110 ± 8.4	–	–	–
CC(C)C(NC(=O)c1nn(Cc2cccc(F)c2)c2ccccc12)C(N)=O (stereo not drawn) [meta-AB-FUBINACA]	89 ± 6.3	280	130 ± 3.7	5.7	91 ± 12	did not display a bias	> 10000	22 ± 6.9	Inactive at βarrestin2	0.63	16	–	30 ± 2.9	5.4	86 ± 13	not different with regard to potency relative to the reference agonist CP55,940, and produced supramaximal EMax responses	significantly greater affinity	CB1R versus CB2R selectivity, βarrestin2 recruitment (hCB1R [6]; CB1R vs CB2R): minimally active at CB1R but agonists at CB2R
N#CCCCCn1cc(C(=O)c2cccc3ccccc23)c2ccccc21 [AM 2232]	73 ± 6.2	130	130 ± 19	190	100 ± 9.3	significant bias toward the inhibition of cAMP	> 10000	68 ± 1.6	–	600	0.31	greater affinity at CB1R relative to CB2R	66 ± 3.6	1.7	86 ± 1.9	greater potency and produced supramaximal EMax responses	significantly less affinity	CB1R versus CB2R selectivity, cAMP inhibition potency (hCB1R [4]; CB1R vs CB2R): more potent at CB2R relative to CB1R; CB1R-dependent inhibition of FSK-stimulated cAMP, activity in words (hCB1R [4]; relative to CP55940): significantly lower potency relative to CP55940, but retained full (i.e., 100%) efficacy
O=C(Nc1cccc2ccccc12)c1cn(Cc2ccc(F)cc2)c2ccccc12 [FDU-NNEI]	85 ± 8.1	1000	25 ± 1.3	1	96 ± 8.1	significant bias toward the inhibition of cAMP	> 10000	49 ± 8.2	–	8.8	14	greater affinity at CB1R relative to CB2R	41 ± 2.8	0.01	103 ± 7.1	–	–	CB1R versus CB2R selectivity, [^3H]CP55,940 displaced (hCB1R [2]; CB1R vs CB2R): displaced more [^3H]CP55,940 at CB1R relative to CB2R
